In article PMC7265341, “Quantifying CDK inhibitor selectivity in live cells” (Nature Communications, 2020):
Where two headings read alike, the source gives them in different places.

How the values were obtained:
[1] = molecular target: CDK6/Cyclin D1 (Homo sapiens, UniProt Q00534); experiment: NanoBRET live-cell target engagement, NanoLuc-CDK6/Cyclin D1 in HEK-293; format: binding; conditions: 10µM, read-out: CDK6/D1 Inhibition at 10µM (%)
[2] = molecular target: CDK7 (Homo sapiens, UniProt P50613); experiment: NanoBRET live-cell target engagement, NanoLuc-CDK7 in HEK-293; format: binding; conditions: 10µM, read-out: CDK7 Inhibition at 10µM (%)
Sequence of CDK7 (P50613 whole entry): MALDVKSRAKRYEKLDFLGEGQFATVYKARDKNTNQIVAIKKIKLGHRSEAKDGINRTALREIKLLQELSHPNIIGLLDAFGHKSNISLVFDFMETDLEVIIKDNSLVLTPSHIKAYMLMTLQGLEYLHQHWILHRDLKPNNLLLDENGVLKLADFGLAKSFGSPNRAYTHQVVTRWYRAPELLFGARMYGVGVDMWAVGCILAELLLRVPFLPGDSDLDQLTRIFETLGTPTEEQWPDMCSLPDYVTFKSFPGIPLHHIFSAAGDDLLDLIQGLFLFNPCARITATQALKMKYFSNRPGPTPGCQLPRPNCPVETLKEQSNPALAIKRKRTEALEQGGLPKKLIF

[3] = molecular target: CDK8/Cyclin C (Homo sapiens, UniProt P49336); experiment: NanoBRET live-cell target engagement, NanoLuc-CDK8/Cyclin C in HEK-293; format: binding; conditions: 10µM, read-out: CDK8/C Inhibition at 10µM (%)
Sequence of CDK8/Cyclin C (P49336 whole entry): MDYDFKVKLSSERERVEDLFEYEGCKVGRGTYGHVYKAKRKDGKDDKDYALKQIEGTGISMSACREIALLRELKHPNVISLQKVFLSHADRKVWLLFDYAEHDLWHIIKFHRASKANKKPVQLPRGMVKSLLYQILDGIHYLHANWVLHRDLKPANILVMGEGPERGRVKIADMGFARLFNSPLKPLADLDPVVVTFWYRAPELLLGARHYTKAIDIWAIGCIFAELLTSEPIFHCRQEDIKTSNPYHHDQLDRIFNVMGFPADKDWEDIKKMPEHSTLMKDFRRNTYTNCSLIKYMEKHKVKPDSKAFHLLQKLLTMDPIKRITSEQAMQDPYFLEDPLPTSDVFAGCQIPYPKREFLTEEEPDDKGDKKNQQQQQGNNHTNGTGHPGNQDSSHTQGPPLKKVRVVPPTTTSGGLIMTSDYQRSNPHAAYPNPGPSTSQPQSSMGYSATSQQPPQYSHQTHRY
Sequence of CDK8/Cyclin C (P24863 whole entry partner): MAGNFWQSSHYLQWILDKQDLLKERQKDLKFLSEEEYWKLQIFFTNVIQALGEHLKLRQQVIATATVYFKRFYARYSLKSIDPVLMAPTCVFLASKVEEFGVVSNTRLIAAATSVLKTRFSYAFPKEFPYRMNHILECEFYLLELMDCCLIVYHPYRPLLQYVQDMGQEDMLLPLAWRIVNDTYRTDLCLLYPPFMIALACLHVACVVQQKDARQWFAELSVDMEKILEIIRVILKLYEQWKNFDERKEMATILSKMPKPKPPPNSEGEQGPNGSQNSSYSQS

[4] = molecular target: CDK12/Cyclin K (Homo sapiens, UniProt Q9NYV4); experiment: NanoBRET live-cell target engagement, CDK12-NanoLuc/Cyclin K in HEK-293; format: binding; conditions: 10µM, read-out: CDK12/K Inhibition at 10µM (%)
Sequence of CDK12/Cyclin K (Q9NYV4 1-1481 isoform Q9NYV4-2): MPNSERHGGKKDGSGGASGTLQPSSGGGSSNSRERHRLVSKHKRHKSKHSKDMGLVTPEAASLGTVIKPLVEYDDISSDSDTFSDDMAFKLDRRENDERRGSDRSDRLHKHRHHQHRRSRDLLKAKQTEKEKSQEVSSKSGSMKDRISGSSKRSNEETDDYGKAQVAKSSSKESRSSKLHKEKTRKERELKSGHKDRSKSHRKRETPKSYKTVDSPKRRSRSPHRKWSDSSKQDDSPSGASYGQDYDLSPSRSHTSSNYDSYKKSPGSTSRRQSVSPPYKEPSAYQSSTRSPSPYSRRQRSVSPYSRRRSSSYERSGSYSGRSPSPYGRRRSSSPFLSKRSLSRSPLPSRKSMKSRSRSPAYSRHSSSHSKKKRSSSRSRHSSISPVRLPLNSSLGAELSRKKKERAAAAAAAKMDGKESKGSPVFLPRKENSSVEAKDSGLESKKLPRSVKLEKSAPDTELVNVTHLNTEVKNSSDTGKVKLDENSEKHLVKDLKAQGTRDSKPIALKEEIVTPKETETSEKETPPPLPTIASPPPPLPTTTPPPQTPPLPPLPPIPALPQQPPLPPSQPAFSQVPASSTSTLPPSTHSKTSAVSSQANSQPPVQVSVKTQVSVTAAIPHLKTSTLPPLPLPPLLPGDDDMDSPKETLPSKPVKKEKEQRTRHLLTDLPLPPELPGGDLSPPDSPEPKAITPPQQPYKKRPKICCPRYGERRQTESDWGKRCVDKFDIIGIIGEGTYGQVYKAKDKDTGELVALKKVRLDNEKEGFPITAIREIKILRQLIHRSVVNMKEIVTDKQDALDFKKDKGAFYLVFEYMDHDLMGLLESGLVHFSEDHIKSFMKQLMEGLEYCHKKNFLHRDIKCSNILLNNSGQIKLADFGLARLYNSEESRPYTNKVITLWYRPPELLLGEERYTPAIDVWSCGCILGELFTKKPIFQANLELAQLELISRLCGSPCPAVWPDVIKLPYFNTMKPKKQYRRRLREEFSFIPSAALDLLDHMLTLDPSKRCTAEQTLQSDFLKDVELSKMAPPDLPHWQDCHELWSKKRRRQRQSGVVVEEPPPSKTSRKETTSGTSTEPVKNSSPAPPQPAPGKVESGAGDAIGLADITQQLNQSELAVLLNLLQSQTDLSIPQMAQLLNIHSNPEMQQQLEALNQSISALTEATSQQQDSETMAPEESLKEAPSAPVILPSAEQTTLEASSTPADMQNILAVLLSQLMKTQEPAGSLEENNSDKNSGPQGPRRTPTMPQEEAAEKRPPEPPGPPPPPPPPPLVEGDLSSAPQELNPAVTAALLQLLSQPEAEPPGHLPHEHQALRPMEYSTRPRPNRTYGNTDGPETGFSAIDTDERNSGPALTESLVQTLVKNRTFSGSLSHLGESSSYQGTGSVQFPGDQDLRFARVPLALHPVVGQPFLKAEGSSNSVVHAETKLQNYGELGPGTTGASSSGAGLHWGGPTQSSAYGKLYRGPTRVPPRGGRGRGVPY
Sequence of CDK12/Cyclin K (O75909 whole entry partner): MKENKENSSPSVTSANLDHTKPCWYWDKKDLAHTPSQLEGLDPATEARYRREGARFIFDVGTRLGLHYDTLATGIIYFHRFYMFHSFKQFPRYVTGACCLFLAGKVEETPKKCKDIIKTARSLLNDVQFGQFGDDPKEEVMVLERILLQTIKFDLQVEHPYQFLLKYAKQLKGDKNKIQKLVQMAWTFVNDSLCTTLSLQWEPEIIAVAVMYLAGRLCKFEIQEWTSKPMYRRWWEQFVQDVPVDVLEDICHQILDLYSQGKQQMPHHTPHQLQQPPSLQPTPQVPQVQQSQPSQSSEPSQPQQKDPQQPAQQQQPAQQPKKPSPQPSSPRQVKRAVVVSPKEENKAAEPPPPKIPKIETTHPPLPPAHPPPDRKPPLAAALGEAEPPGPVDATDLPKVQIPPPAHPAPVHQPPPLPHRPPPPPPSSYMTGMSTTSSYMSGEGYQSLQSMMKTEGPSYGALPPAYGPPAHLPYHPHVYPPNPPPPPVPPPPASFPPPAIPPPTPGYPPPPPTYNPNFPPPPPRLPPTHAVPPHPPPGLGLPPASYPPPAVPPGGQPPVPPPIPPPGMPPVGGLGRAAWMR

[5] = molecular target: CDK17/Cyclin Y (Homo sapiens, UniProt Q00537); experiment: NanoBRET live-cell target engagement, CDK17-NanoLuc/Cyclin Y in HEK-293; format: binding; conditions: for inhibition at 10 µM: read-out: CDK17/Y Inhibition at 10µM (%); for IC50: read-out: CDK17/Y IC50
[6] = molecular target: CDK2/Cyclin E1 (Homo sapiens, UniProt P24941); experiment: NanoBRET live-cell target engagement, CDK2-NanoLuc/Cyclin E1 in HEK-293; format: binding; conditions: 10µM, read-out: CDK2/E1 Inhibition at 10µM (%)
[7] = molecular target: CDK13/Cyclin K (Homo sapiens, UniProt Q14004); experiment: NanoBRET live-cell target engagement, CDK13-NanoLuc/Cyclin K in HEK-293; format: binding; conditions: 10µM, read-out: CDK13/K Inhibition at 10µM (%)
Sequence of CDK13/Cyclin K (O75909 whole entry): as the sequence (O75909 whole entry partner) above
Sequence of CDK13/Cyclin K (Q14004 other isoform, or with tags, fused parts or gaps): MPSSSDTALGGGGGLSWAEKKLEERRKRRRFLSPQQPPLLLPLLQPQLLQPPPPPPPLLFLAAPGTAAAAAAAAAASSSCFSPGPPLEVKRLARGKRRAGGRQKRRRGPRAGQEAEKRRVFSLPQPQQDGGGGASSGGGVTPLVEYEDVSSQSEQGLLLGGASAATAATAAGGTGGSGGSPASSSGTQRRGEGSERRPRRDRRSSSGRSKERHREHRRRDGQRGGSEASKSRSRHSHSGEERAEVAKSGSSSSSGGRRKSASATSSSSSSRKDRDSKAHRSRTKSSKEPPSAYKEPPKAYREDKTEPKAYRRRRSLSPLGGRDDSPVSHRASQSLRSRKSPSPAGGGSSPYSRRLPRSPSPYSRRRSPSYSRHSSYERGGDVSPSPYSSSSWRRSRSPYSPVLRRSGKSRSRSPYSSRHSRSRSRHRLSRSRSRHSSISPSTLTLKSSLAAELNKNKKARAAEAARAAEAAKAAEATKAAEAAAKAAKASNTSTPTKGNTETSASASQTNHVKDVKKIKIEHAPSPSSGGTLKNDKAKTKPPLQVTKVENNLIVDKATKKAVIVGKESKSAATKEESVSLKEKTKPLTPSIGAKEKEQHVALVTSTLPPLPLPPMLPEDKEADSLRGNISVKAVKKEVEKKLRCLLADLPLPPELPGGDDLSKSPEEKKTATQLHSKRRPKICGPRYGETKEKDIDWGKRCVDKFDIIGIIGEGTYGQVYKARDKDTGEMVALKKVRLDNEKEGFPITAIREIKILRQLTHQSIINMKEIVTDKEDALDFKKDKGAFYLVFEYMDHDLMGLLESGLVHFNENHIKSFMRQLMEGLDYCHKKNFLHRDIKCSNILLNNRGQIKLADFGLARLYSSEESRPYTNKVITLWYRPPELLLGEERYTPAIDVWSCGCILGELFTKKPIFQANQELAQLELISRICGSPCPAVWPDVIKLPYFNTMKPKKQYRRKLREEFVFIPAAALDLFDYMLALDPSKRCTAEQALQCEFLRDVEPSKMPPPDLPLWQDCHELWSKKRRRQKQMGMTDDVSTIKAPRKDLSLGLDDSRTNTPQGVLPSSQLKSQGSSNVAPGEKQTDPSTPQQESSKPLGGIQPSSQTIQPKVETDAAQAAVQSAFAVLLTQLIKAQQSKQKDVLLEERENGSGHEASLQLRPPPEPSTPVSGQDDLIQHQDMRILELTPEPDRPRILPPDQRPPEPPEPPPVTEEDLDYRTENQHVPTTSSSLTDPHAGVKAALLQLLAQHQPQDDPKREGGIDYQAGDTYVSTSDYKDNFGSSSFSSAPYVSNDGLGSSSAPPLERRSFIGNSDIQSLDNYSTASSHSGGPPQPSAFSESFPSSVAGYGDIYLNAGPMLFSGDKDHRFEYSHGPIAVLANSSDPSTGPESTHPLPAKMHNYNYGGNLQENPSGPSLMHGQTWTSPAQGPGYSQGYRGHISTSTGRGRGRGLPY

[8] = molecular target: CDK5/CDK5R1 (Homo sapiens, UniProt Q00535); experiment: NanoBRET live-cell target engagement, CDK5-NanoLuc/CDK5R1 in HEK-293; format: binding; conditions: 10µM, read-out: CDK5/CDK5R1 Inhibition at 10µM (%)
[9] = molecular target: CDK10/Cyclin L2 (Homo sapiens, UniProt Q15131); experiment: NanoBRET live-cell target engagement, CDK10-NanoLuc/Cyclin L2 in HEK-293; conditions: read-out: CDK10/L2 Inhibition at 10µM (%), 10µM
Sequence of CDK10/Cyclin L2 (Q15131 whole entry): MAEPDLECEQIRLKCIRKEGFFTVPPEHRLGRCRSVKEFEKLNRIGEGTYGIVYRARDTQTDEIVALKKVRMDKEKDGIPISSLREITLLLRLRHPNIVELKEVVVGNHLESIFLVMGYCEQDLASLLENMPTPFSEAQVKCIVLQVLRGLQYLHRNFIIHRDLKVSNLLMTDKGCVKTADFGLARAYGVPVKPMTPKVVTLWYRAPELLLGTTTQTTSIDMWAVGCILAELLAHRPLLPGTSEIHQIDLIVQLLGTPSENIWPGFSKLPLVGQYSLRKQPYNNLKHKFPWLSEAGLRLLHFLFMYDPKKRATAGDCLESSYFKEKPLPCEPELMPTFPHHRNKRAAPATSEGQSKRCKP

[10] = molecular target: CDK1/Cyclin E1 (Homo sapiens, UniProt P06493); experiment: NanoBRET live-cell target engagement, CDK1-NanoLuc/Cyclin E1 in HEK-293; format: binding; conditions: 10µM, read-out: CDK1/E1 Inhibition at 10µM (%)
[11] = molecular target: CDK11B/Cyclin L2 (Homo sapiens, UniProt P21127); experiment: NanoBRET live-cell target engagement, CDK11B-NanoLuc/Cyclin L2 in HEK-293; format: binding; conditions: 10µM, read-out: CDK11b/L2 Inhibition at 10µM (%)
[12] = molecular target: CDK19/Cyclin C (Homo sapiens, UniProt Q9BWU1); experiment: NanoBRET live-cell target engagement, NanoLuc-CDK19/Cyclin C in HEK-293; conditions: read-out: CDK19/C Inhibition at 10µM (%), 10µM
[13] = molecular target: CDK18/Cyclin Y (Homo sapiens, UniProt Q07002); experiment: NanoBRET live-cell target engagement, CDK18-NanoLuc/Cyclin Y in HEK-293; format: binding; conditions: 10µM, read-out: CDK18/Y Inhibition at 10µM (%)
[14] = molecular target: CDK9/Cyclin K (Homo sapiens, UniProt P50750); experiment: NanoBRET live-cell target engagement, NanoLuc-CDK9/Cyclin K in HEK-293; format: binding; conditions: 10µM, read-out: CDK9/K Inhibition at 10µM (%)
[15] = molecular target: CDK3/Cyclin E1 (Homo sapiens, UniProt Q00526); experiment: NanoBRET live-cell target engagement, CDK3-NanoLuc/Cyclin E1 in HEK-293; format: binding; conditions: 10µM, read-out: CDK3/E1 Inhibition at 10µM (%)
[16] = molecular target: CDK15/Cyclin Y (Homo sapiens, UniProt Q96Q40); experiment: NanoBRET live-cell target engagement, NanoLuc-CDK15/Cyclin Y in HEK-293; format: binding; conditions: 10µM, read-out: CDK15/Y Inhibition at 10µM (%)
[17] = molecular target: CDK16/Cyclin Y (Homo sapiens, UniProt Q00536); experiment: NanoBRET live-cell target engagement, CDK16-NanoLuc/Cyclin Y in HEK-293; format: binding; conditions: for inhibition at 10 µM: read-out: CDK16/Y Inhibition at 10µM (%); for IC50: read-out: CDK16/Y IC50
[18] = molecular target: CDK14/Cyclin Y (Homo sapiens, UniProt O94921); experiment: NanoBRET live-cell target engagement, CDK14-NanoLuc/Cyclin Y in HEK-293; format: binding; conditions: 10µM, read-out: CDK14/Y Inhibition at 10µM (%)
[19] = molecular target: CDK20/Cyclin H (Homo sapiens, UniProt Q8IZL9); experiment: NanoBRET live-cell target engagement, NanoLuc-CDK20/Cyclin H in HEK-293; format: binding; conditions: 10µM, read-out: CDK20/H Inhibition at 10µM (%)
[20] = molecular target: CDK4/Cyclin D1 (Homo sapiens, UniProt P11802); experiment: NanoBRET live-cell target engagement, NanoLuc-CDK4/Cyclin D1 in HEK-293; format: binding; conditions: 10µM, read-out: CDK4/D1 Inhibition at 10µM (%)

SMILES: CN1CCN(c2ccc(Nc3ncc4cc5n(c4n3)C3(CCCCC3)CNC5=O)nc2)CC1 [Trilaciclib]
- inhibition at 10 µM ([1]; average of experiments): 99.4%
- inhibition at 10 µM ([1]; independent experiment 1): 98.4%
- inhibition at 10 µM ([1]; independent experiment 2): 100%
- inhibition at 10 µM ([2]; average of experiments): 8.6%
- inhibition at 10 µM ([2]; independent experiment 1): -3.8%
- inhibition at 10 µM ([2]; independent experiment 2): 20.9%
- inhibition at 10 µM ([3]; average of experiments): 7.6%
- inhibition at 10 µM ([3]; independent experiment 1): 7.9%
- inhibition at 10 µM ([3]; independent experiment 2): 7.4%
- inhibition at 10 µM ([4]; average of experiments): -2.6%
- inhibition at 10 µM ([4]; independent experiment 1): -5.3%
- inhibition at 10 µM ([4]; independent experiment 2): 0.155%
- inhibition at 10 µM ([5]; average of experiments): 41.1%
- inhibition at 10 µM ([5]; independent experiment 1): 49.5%
- inhibition at 10 µM ([5]; independent experiment 2): 32.7%
- IC50 ([5]; average (± SEM where n=3)): 500 ± 200 nM
- IC50 ([5]; independent experiment 1): 113 nM
- IC50 ([5]; independent experiment 2): 800 nM
- IC50 ([5]; independent experiment 3): 628 nM
- inhibition at 10 µM ([6]; average of experiments): 0.461%
- inhibition at 10 µM ([6]; independent experiment 1): 1.5%
- inhibition at 10 µM ([6]; independent experiment 2): -0.535%
- inhibition at 10 µM ([7]; average of experiments): 3.3%
- inhibition at 10 µM ([7]; independent experiment 1): 1.9%
- inhibition at 10 µM ([7]; independent experiment 2): 4.7%
- inhibition at 10 µM ([8]; average of experiments): -10.2%
- inhibition at 10 µM ([8]; independent experiment 1): 2.3%
- inhibition at 10 µM ([8]; independent experiment 2): -22.7%
- inhibition at 10 µM ([9]; average of experiments): 11.6%
- inhibition at 10 µM ([9]; independent experiment 1): 13.3%
- inhibition at 10 µM ([9]; independent experiment 2): 9.9%
- inhibition at 10 µM ([10]; average of experiments): 8.6%
- inhibition at 10 µM ([10]; independent experiment 1): 17.2%
- inhibition at 10 µM ([10]; independent experiment 2): -0.0634%
- inhibition at 10 µM ([11]; average of experiments): 23.5%
- inhibition at 10 µM ([11]; independent experiment 1): 6.3%
- inhibition at 10 µM ([11]; independent experiment 2): 40.7%
- inhibition at 10 µM ([12]; average of experiments): 9.4%
- inhibition at 10 µM ([12]; independent experiment 1): 10.3%
- inhibition at 10 µM ([12]; independent experiment 2): 8.5%
- inhibition at 10 µM ([13]; average of experiments): 13.4%
- inhibition at 10 µM ([13]; independent experiment 1): 6.3%
- inhibition at 10 µM ([13]; independent experiment 2): 20.6%
- inhibition at 10 µM ([14]; average of experiments): 38.1%
- inhibition at 10 µM ([14]; independent experiment 1): 30%
- inhibition at 10 µM ([14]; independent experiment 2): 46.2%
- inhibition at 10 µM ([15]; average of experiments): 2.3%
- inhibition at 10 µM ([15]; independent experiment 1): 3.5%
- inhibition at 10 µM ([15]; independent experiment 2): 1.1%
- inhibition at 10 µM ([16]; average of experiments): 8%
- inhibition at 10 µM ([16]; independent experiment 1): 2.9%
- inhibition at 10 µM ([16]; independent experiment 2): 13.1%
- inhibition at 10 µM ([17]; independent experiment 1): 57.8%
- inhibition at 10 µM ([17]; independent experiment 2): 35.1%
- IC50 ([17]; average (± SEM where n=3)): 600 ± 200 nM
- IC50 ([17]; independent experiment 1): 162 nM
- IC50 ([17]; independent experiment 2): 870 nM
- IC50 ([17]; independent experiment 3): 721 nM
- inhibition at 10 µM ([18]; average of experiments): 11.3%
- inhibition at 10 µM ([18]; independent experiment 1): 16.4%
- inhibition at 10 µM ([18]; independent experiment 2): 6.2%
- inhibition at 10 µM ([19]; independent experiment 1): 10%
- inhibition at 10 µM ([19]; independent experiment 2): 5.6%
- inhibition at 10 µM ([20]; average of experiments): 93%
- inhibition at 10 µM ([20]; independent experiment 1): 97%
- inhibition at 10 µM ([20]; independent experiment 2): 88.9%
